Assay results taken from PMC5590679 (Journal of medicinal chemistry, 2017).
≈ marks a conversion by molar mass, not a printed value. Read-outs that look alike come from different tables or passages of the source.

What was measured:
[1] = test system: Mtb H37Rv; assay: microbe, parasite or virus in culture; assay type: cell-based, Mycobacterium tuberculosis; conditions: for MIC50 WT+biotin: Mtb H37Rv with 1 μM supplemental biotin; for MIC: Mycobacterium tuberculosis, H37RV
[2] = test system: Mtb BioA underexpression strain (BioA-UE); assay: microbe, parasite or virus in culture; assay type: cell-based, Mycobacterium tuberculosis
[3] = test system: Mtb H37Rv; conditions: cited from earlier work
[4] = MIC that results in 50% inhibition

## CC(=O)c1ccc(N2CCN(C(=O)c3ccc4c(c3)OCO4)CC2)cc1 [Compound 6, 1-(4-(4-(Benzo[d][1,3]dioxole-5-carbonyl)piperazin-1-yl)phenyl)-ethanone]
[1]; [4]
  MIC50 WT+biotin: >50 µM
[1]; read-out: MIC that results in 90% inhibition, WT+biotin
  MIC: > 50 µM
[1]; read-out: MIC that results in 90% inhibition, WT-biotin
  MIC: 23.4 µM (≈ 8.25 µg/mL)
[2]; Mycobacterium tuberculosis, read-out: MIC that results in 90% inhibition, BioA-UE
  MIC: 1.7 µM (≈ 0.599 µg/mL)
[3]
  activity against whole-cell Mtb in biotin-supplemented medium: no observed activity

## CC(=O)c1ccc(N2CCN(C(=O)c3ccc(Cl)c(Cl)c3)CC2)cc1 [Compound 9, 1-(4-(4-(3,4-Dichlorobenzoyl)piperazin-1-yl)phenyl)ethanone]
[1]; biotin-free medium, relative to 6
  fold loss in potency against WT Mtb: 2 fold

## CC(=O)c1cccc(N2CCN(C(=O)c3cccc(Cl)c3)CC2)c1 [Compound 30, 1-(3-(4-(3-Chlorobenzoyl)piperazin-1-yl)phenyl)ethanone]
[1]
  fold loss in activity compared to para-acetyl 12: 10–50 fold

## O=C1CCc2cc(N3CCN(C(=O)c4ccc5c(c4)OCO5)CC3)ccc21 [Compound 36, 5-(4-(Benzo[d][1,3]dioxole-5-carbonyl)piperazin-1-yl)-2,3-dihydro-1H-inden-1-one]
[1]; read-out: minimum inhibitory concentration (MIC) against WT Mtb
  MIC: 1.7 µM (≈ 0.619 µg/mL)

## CC(=O)c1ccc(-c2cn(Cc3cccc(Cl)c3)nn2)cc1 [Compound 37, 1-(4-(1-(3-Chlorobenzyl)-1H-1,2,3-triazol-4-yl)phenyl)ethanone]
[1]
  antitubercular activity (in words): inactive

## CC(=O)c1ccc(-c2cn(Cc3cccc(Cl)c3)nn2)s1 [Compound 38, 1-(5-(1-(3-Chlorobenzyl)-1H-1,2,3-triazol-4-yl)thiophen-2-yl)-ethanone]
[1]
  antitubercular activity (in words): inactive

## CC(=O)c1ccc(N2CCC(C(=O)c3ccc4c(c3)OCO4)CC2)cc1 [Compound 40, 1-(4-(4-(Benzo[d][1,3]dioxole-5-carbonyl)piperidin-1-yl)phenyl)-ethanone]
[1]
  antitubercular activity (in words): completely inactive

## (3-Chlorophenyl)(4-(5-methoxypyridin-2-yl)piperazin-1-yl)-methanone [Compound 22]
[1]; [4]
  MIC50 WT+biotin: >50 µM
[1]; MIC that results in 50% inhibition, Mtb H37Rv without supplemental biotin
  MIC50 WT-biotin: 22.0 µM
[2]; MIC that results in 50% inhibition, […]
  MIC50 BioA-UE: 24.4 µM
